Measured values taken from patent publication US5591741A, “Fungicidal spiroheterocyclic derivatives” (American Cyanamid Company, priority 1993, dated 1997).

Tests used:
[1] = tested on: Erysiphe graminis f.sp. hordei; assay: Activity against barley powdery mildew, direct therapeutic (EGT); format: in vivo; settings: direct therapeutic foliar spray, 600 ppm, up to 7 days
Summary of the method: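 Barley seedlings (cv. Golden Promise, single-leaf stage) were dusted with mildew conidia one day before a therapeutic foliar spray of 600 ppm compound. Plants were kept at 18 °C and 40% humidity for up to 7 days, and sporulating leaf area was rated against untreated or diluent-sprayed controls.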

[2] = tested on: Pyricularia oryzae; format: in vivo; settings: rice seedlings, direct therapeutic foliar spray, 600 ppm, 4-5 days
[3] = tested on: Phytophthora infestans; format: in vivo; settings: tomato, direct protectant foliar spray
[4] = tested on: Venturia inaequalis; assay: Activity against apple scab in-vitro (VII); format: cell-based; settings: 10 ppm, 10 days, 20° C., mycelial growth
Summary of the method: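 Compound in acetone was tested at 10 ppm final in half-strength Potato Dextrose Broth inoculated with V. inaequalis mycelial fragments and spores at 5×10^4 propagules/ml. After 10 days at 20° C, mycelial growth was rated against untreated or diluent controls.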

[5] = tested on: Erysiphe graminis f.sp. hordei; assay: Direct protectant activity against barley powdery mildew (EGP); format: in vivo; settings: direct protectant foliar spray, 8 days
Summary of the method: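 Barley seedlings (cv Golden Promise, single-leaf stage) were foliar-sprayed, held 24 h at 18 °C/40% RH, then dusted with mildew conidia. After 8 days at 18 °C/40% RH, sporulating leaf area was scored as a rating against untreated or diluent-sprayed controls.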

[6] = tested on: Botrytis cinerea; assay: Direct protectant activity against broad bean grey mould (BCB); format: in vivo; settings: direct protectant foliar spray, 600 ppm, 4 days
Summary of the method: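 Broad bean plants (cv The Sutton, two leaf pairs) sprayed on upper leaf surfaces at 600 ppm, then inoculated 24 h later with 10^6 conidia/ml. Kept 4 days at 22 °C, high humidity; disease control rated from % leaf area with lesions against untreated or diluent controls.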

[7] = tested on: Plasmopara viticola; assay: Antisporulant activity against vine downy mildew (PVA); format: in vivo; settings: vine leaves, antisporulant foliar spray, 600 ppm, 750 l/ha
Summary of the method: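 Cabernet Sauvignon vines (~8 cm) inoculated on lower leaf surfaces with 5×10^4 zoosporangia/ml, held 24 h at 21° C high humidity then 24 h glasshouse. Infected leaves sprayed underside with 600 ppm compound in 1:1 water/acetone, 0.04% Tween 20, 750 l/ha; 96 h glasshouse, 24 h humidity. Sporulating leaf area rated versus control.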

[8] = tested on: Leptosphaeria nodorum; assay: Activity against wheat leafspot (LN); format: in vivo; settings: direct therapeutic foliar spray, 600 ppm, 6-8 days
Summary of the method: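 Wheat cv Norman at single-leaf stage spray-inoculated with 1.5×10^6 conidia/ml, held 24 h at high humidity, then sprayed therapeutically with test compound at 600 ppm. Kept 6-8 days at 22° C, 70% humidity; lesion density per leaf rated against untreated or diluent-sprayed controls.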

[9] = tested on: Alternaria solani; assay: Activity against tomato early blight (AS); format: in vivo; settings: Table VI; tomato seedlings, contact prophylactic foliar spray, 4 days
Summary of the method: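 Foliar contact prophylactic spray on tomato seedlings (cv Outdoor Girl, second true leaf expanded) in acetone/water 50:50 with 0.04% Tween 20; 24 h at 20° C, 40% R.H., then inoculation with 10^4 spores/ml A. solani conidia. Kept moist at 21° C; lesion cover rated 4 days post-inoculation against untreated or diluent-sprayed controls.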

[10] = tested on: Rhizoctonia solani; assay: Activity against Rhizoctonia in-vitro (RSI); format: cell-based; settings: 10 ppm, 10 days, 20° C., mycelial growth
Summary of the method: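 R. solani mycelial fragments (5×10^4/ml) in half-strength Potato Dextrose Broth with compound added from acetone to 10 ppm final. Mycelial growth assessed after 10 days at 20° C, rated against untreated or diluent control.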

[11] = tested on: Pseudocercosporella herpotrichoides; assay: Activity against wheat eyespot in-vitro (PHI); format: cell-based; settings: 10 ppm, 10 days, 20° C., mycelial growth
Summary of the method: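 P. herpotrichoides mycelial fragments (5×10^4/ml) grown in half-strength PDB with compound at 10 ppm final, added from acetone. Incubated 10 days at 20 °C; mycelial growth rated against untreated or diluent controls.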

Row | Structure (SMILES) | disease control rating EGT [1] | disease control rating PO [2] | disease control rating PIP [3] | disease control rating VII [4] | disease control rating EGP [5] | disease control rating BCB [6] | disease control rating PVA [7] | disease control rating LN [8] | disease control rating AS [9] | disease control rating RSI [10] | disease control rating PHI [11]
1 | CN(CCC1CCCCC1)C1COC2(CCC(C(C)(C)C)CC2)C1 (centres unmarked) [Compound 117] | 2 (greater than 80% disease control) | 0 (less than 50% disease control) | 0 (less than 50% disease control) | 1 (about 50-80% disease control) | 2 (greater than 80% disease control) | 0 (less than 50% disease control) | 0 (less than 50% disease control) | 0 (less than 50% disease control) | 2 (greater than 80% disease control) | 1 (about 50-80% disease control) | 1 (about 50-80% disease control)
2 | CC(C)(C)C1CCC2(CC1)CC(N1CCCC1)CO2 (centres unmarked) [Compound 9] | 2 (greater than 80% disease control) | 0 (less than 50% disease control) | 0 (less than 50% disease control) | 1 (about 50-80% disease control) | 2 (greater than 80% disease control) | 0 (less than 50% disease control) | 0 (less than 50% disease control) | 1 (about 50-80% disease control) | 0 (less than 50% disease control) | 0 (less than 50% disease control) | 1 (about 50-80% disease control)
3 | CCC(CC)N(C)C1COC2(CCC(C(C)(C)C)CC2)C1 (centres unmarked) [Compound 94] | 2 (greater than 80% disease control) | 0 (less than 50% disease control) | 0 (less than 50% disease control) | 0 (less than 50% disease control) | 2 (greater than 80% disease control) | 0 (less than 50% disease control) | 0 (less than 50% disease control) | 1 (about 50-80% disease control) | 0 (less than 50% disease control) | 1 (about 50-80% disease control) | 0 (less than 50% disease control)
4 | CN(C)CCC1COC2(CCC(C(C)(C)C)CC2)C1 (centres unmarked) [Compound 191] | 0 (less than 50% disease control) | 0 (less than 50% disease control) | 0 (less than 50% disease control) | 0 (less than 50% disease control) | 2 (greater than 80% disease control) | 0 (less than 50% disease control) | 0 (less than 50% disease control) | 0 (less than 50% disease control) | 0 (less than 50% disease control) | 0 (less than 50% disease control) | 0 (less than 50% disease control)
5 | CC(C)(C)C1CCC2(CC1)CC(N1CCc3ccccc3C1)CO2 (centres unmarked) [Compound 114] | 2 (greater than 80% disease control) | 0 (less than 50% disease control) | 2 (greater than 80% disease control) | 1 (about 50-80% disease control) | 2 (greater than 80% disease control) | 2 (greater than 80% disease control) | 0 (less than 50% disease control) | 0 (less than 50% disease control) | 1 (about 50-80% disease control) | 0 (less than 50% disease control) | 0 (less than 50% disease control)
6 | CC(C)(C)C1CCC2(CC1)CC(NC1CCCC1)CO2 (centres unmarked) [Compound 70] | 2 (greater than 80% disease control) | 0 (less than 50% disease control) | 2 (greater than 80% disease control) | 1 (about 50-80% disease control) | 2 (greater than 80% disease control) | 0 (less than 50% disease control) | 0 (less than 50% disease control) | 0 (less than 50% disease control) | 1 (about 50-80% disease control) | 0 (less than 50% disease control) | 0 (less than 50% disease control)
7 | CC(C)CN(CC(C)C)CC1COC2(CCC(C(C)(C)C)CC2)C1 (centres unmarked) [Compound 186] | 0 (less than 50% disease control) | 0 (less than 50% disease control) | 0 (less than 50% disease control) | 0 (less than 50% disease control) | 2 (greater than 80% disease control) | 0 (less than 50% disease control) | 0 (less than 50% disease control) | 0 (less than 50% disease control) | 0 (less than 50% disease control) | 0 (less than 50% disease control) | 0 (less than 50% disease control)
8 | CC(C)(C)CCNC1COC2(CCC(C(C)(C)C)CC2)C1 (centres unmarked) [Compound 111] | 2 (greater than 80% disease control) | 0 (less than 50% disease control) | 2 (greater than 80% disease control) | 1 (about 50-80% disease control) | 2 (greater than 80% disease control) | 1 (about 50-80% disease control) | 0 (less than 50% disease control) | 0 (less than 50% disease control) | 0 (less than 50% disease control) | 1 (about 50-80% disease control) | 0 (less than 50% disease control)
9 | CC1(CNC2COC3(CCC(C(C)(C)C)CC3)C2)CCCCC1 (centres unmarked) [Compound 120] | 2 (greater than 80% disease control) | 0 (less than 50% disease control) | 0 (less than 50% disease control) | 1 (about 50-80% disease control) | 2 (greater than 80% disease control) | 1 (about 50-80% disease control) | 0 (less than 50% disease control) | 0 (less than 50% disease control) | 0 (less than 50% disease control) | 1 (about 50-80% disease control) | 0 (less than 50% disease control)
10 | CN(C1COC2(CCC(C(C)(C)C)CC2)C1)C1CC2CCC1C2 (centres unmarked) [Compound 128] | 2 (greater than 80% disease control) | 0 (less than 50% disease control) | 0 (less than 50% disease control) | 1 (about 50-80% disease control) | 2 (greater than 80% disease control) | 0 (less than 50% disease control) | 0 (less than 50% disease control) | 0 (less than 50% disease control) | 2 (greater than 80% disease control) | 0 (less than 50% disease control) | 0 (less than 50% disease control)
